Measured values published in US8765123B1, “Compositions and methods for the treatment and prevention of infections caused by Staphylococcus aureus bacteria” (Rutgers, The State University of New Jersey, priority 2007, dated 2014).
“Also recorded” adds a separate entry of the source.

Experiments:
Type in all cases: cell-based, Staphylococcus aureus
[1] = system: S. aureus biofilm cells; assay: Killing of biofilm cells in microplate wells, CFU/well enumeration; conditions: 24-h biofilm; deoxyribonuclease I alone, 100 μg/ml for 10 min; FIG. 8
Procedure: Biofilms were grown for 24 h in 96-well microtiter plates as described above. Biofilms were rinsed once with water and then treated with 200 μl of TSB medium containing 100 μg/ml of deoxyribonuclease I. Control wells were treated with 200 μl of TSB medium alone. […] Control wells received 20 μl of water. […] This reaction was carried out in 100 μg/ml in 150 mM NaCl, 1 mM CaCl2 as described above. After 10 min, cells were mixed and then serial dilutions were plated on agar. For S. aureus biofilms treated with deoxyribonuclease I, cells were mixed and then a 50-μl aliquot of cells was diluted in 50 ml of phosphate buffered saline. The cells were passed through an analytical test filter funnel (no. 145-2020; Nalgene, Rochester, N.Y.), and the filter was rinsed with 250 ml of sterile water, aseptically removed from the filter unit, and placed on a blood agar plate. Colonies were enumerated after 24 h.

[2] = system: SH1000 biofilms; assay: Biofilm formation in 96-well microtiter plates in supplemented TSB medium, crystal violet A595
[3] = system: S. aureus Strain SH1000 biofilms; assay: Detachment of pre-formed S. aureus biofilms in microtiter plate wells, crystal violet staining
Procedure: (§1) S. aureus Strain SH1000 (Horsburgh et al., 2002. J. Bacteriol. 184:5457-5467) was used in all of the following examples. The bacteria were passaged weekly on blood agar and stored at 4° C. Biofilms were cultured in Tryptic Soy broth (Becton-Dickinson, Sparks, Md.) containing 6 g of yeast extract and 8 g of glucose per liter (TSB medium). All cultures were incubated at 37° C.
A biofilm formation assay was carried out as follows. A loopful of cells from an agar plate was transferred to a polypropylene microcentrifuge tube containing 200 μl of TSB medium. The cells were crushed with a disposable pellet pestle, vortexed for 30 sec, diluted to 1 ml in fresh TSB medium, and then passed through a 5-μm pore-size syringe filter to remove large clumps of cells as previously described (Kaplan & Fine, 2002. Appl. Environ. Microbiol. 68:4943-4950). Filtered cells were diluted to 10^3-10^5 CFU/ml in TSB medium. Aliquots of cells (200 μl each) were transferred to the wells of a 96-well tissue-culture-treated polystyrene microtiter plate (Falcon no. 324662, Becton-Dickinson) and the plate was incubated for 24 h. The biofilms were rinsed once with water and then treated with 200 μl of deoxyribonuclease I (bovine deoxyribonuclease I, purchased from Sigma Chemical Company) at 100 μg/ml in 150 mM NaCl, 1 mM CaCl2. Control biofilms were treated with 200 μl of 150 mM NaCl, 1 mM CaCl2 alone. After 10 min at 37° C., biofilms were rinsed with water and then dried. Biofilms were stained for 1 min with 200 μl of Gram's crystal violet stain (catalog no. 23255960, Fisher Scientific, Fair Lawn, N.J.) and then rinsed with water and dried.
The concentration of deoxyribonuclease I was 100 μg/ml and the treatment time was 10 min. In this case, the amount of biofilm biomass remaining in the well was quantitated by measuring the A595 of the crystal violet stained biomass as described above, and the percent of biofilm cell detachment was calculated using the formula: 1−(A595[buffer+deoxyribonuclease I]/A595[buffer alone])×100.

[4] = system: S. aureus SH1000 cells; assay: Autoaggregation and biofilm formation in PET tubes with supplemented TSB medium; conditions: medium supplemented with 100 μg/ml, 16 h
Procedure: as §1
These experiments were carried out as described above, except that biofilms were grown in 16-mm×100-mm PET tubes (2 ml culture vol) in a rotary shaker for 16 h.

## deoxyribonuclease I
[1]
  decrease in CFU/well values (killing of biofilm cells): resistant to killing; also recorded: did not exhibit a significant decrease
[2]; increasing concentrations in medium, FIG. 7
  inhibition of biofilm formation (A595 of crystal violet stained biomass), concentration dependence: dependent on the deoxyribonuclease I concentration; also recorded: inhibited SH1000 biofilm formation in a dose-dependent manner
[2]; medium supplemented with 100 μg/ml, 24 h, FIG. 6
  biofilm colony morphology in microplate wells: incapable of forming distinct biofilm colonies; also recorded: formed a dense film that uniformly covered the microwell surface, but which readily detached after gentle rinsing
[3]; 24-h-old biofilm, 100 μg/ml, 10 min treatment, FIG. 1
  detachment of biofilm (crystal violet staining material remaining in the well): significant detachment of the biofilm; also recorded: nearly complete detachment
[3]; 24-h-old biofilm, 10 min treatment, FIG. 2
  concentration dependence of biofilm detachment (Absorbance at 595 nm): dependent on the deoxyribonuclease I concentration
[3]; 24-h-old biofilm, concentrations between 0.1 and 10 μg/ml, 10 min, FIG. 2
  detachment of biofilm (A595 of crystal violet): partial detachment
[3]; 24-h-old biofilm, concentrations greater than 10 μg/ml, 10 min, FIG. 2
  detachment of biofilm (A595 of crystal violet): near complete detachment
[3]; 24-h-old biofilm, concentrations less than 0.1 μg/ml, 10 min, FIG. 2
  detachment of biofilm (A595 of crystal violet): little detachment
[3]; biofilms grown for 5, 8, 12 or 24 h, 100 μg/ml, 10 min, FIG. 3
  detachment of biofilms of different age (percent of biofilm cell detachment from A595): capable of detaching; also recorded: significant detachment of all of the S. aureus biofilms, regardless of their age
[4]; FIG. 5
  biofilm formation in tubes at the air-liquid interface (crystal violet staining): much less biofilm formation; also recorded: inhibited biofilm formation at the air-liquid interface
[4]; rotary shaker, FIG. 4
  autoaggregation (clumping) of cells: much less clumping; also recorded: formed smaller aggregates
